Source: patent US8101550B2, “Anthranilic acid diamide derivative with hetero-aromatic and hetero-cyclic substituents” (Bayer Cropscience AG, priority 2006, dated 2012)

experiment: log P determination by HPLC on reverse-phase column (EEC Directive 79/831 Annex V.A8); type: physicochemical; conditions: not given
Method: The log P values stated in the foregoing tables and preparation examples are determined in accordance with EEC Directive 79/831 Annex V.A8 by means of HPLC (High Performance Liquid Chromatography) on a reverse-phase column (C 18). Temperature: 43° C.
The determination by LC-MS in the acidic range takes place at a pH of 2.7 using 0.1% aqueous formic acid and acetonitrile (containing 0.1% formic acid) as eluents; linear gradient from 10% acetonitrile to 95% acetonitrile.
Calibration is with unbranched alkan-2-ones (having 3 to 16 carbon atoms) of known log P value (log P values determined from the retention times by linear interpolation between two successive alkanones).

Compound | logP
Cc1cc(I)cc(C(N)=O)c1NC(=O)c1cc(Cn2nc(C(F)(F)F)nc2C(F)(F)F)nn1-c1ncccc1Cl [I-1-272] | 3.38
Cc1cc(C#N)cc(C(=O)NC(C)C)c1NC(=O)c1cc(Cn2cc(C(F)(F)C(F)(F)F)c(C(F)(F)C(F)(F)F)n2)nn1-c1ncccc1Cl [I-1-169] | 4.55
Cc1cc(Cl)cc(C(=O)NC(C)C)c1NC(=O)c1cc(Cn2nc(C(F)F)c([N+](=O)[O-])c2C(F)F)nn1-c1ncccc1Cl [I-1-258] | 3.32
CNC(=O)c1cc(I)cc(C)c1NC(=O)c1cc(Cn2ccc(C(F)(F)F)n2)nn1-c1ncccc1Cl [I-1-247] | 3.05
N#CCNC(=O)c1cc(Cl)cc(Cl)c1NC(=O)c1cc(Cn2cc(C(F)(F)C(F)(F)F)c(C(F)(F)C(F)(F)F)n2)nn1-c1ncccc1Cl [I-1-299] | 3.53
Cc1cc(C#N)cc(C(=O)NCC#N)c1NC(=O)c1cc(Cn2cc(Cl)c(C(F)(F)C(F)(F)F)n2)nn1-c1ncccc1Cl [I-1-175] | 3.40
N#CCNC(=O)c1cc(Cl)cc(Cl)c1NC(=O)c1cc(Cn2cc(Cl)c(C(F)(F)C(F)(F)F)n2)nn1-c1ncccc1Cl [I-1-310] | 3.13
O=C(NC1CC1)c1cc(Cl)cc(Cl)c1NC(=O)c1cc(Cn2ccc(C(F)(F)F)n2)nn1-c1ncccc1Cl [I-1-315] | 2.54
Cc1cc(C#N)cc(C(=O)NC2C3CCCCC32)c1NC(=O)c1cc(Cn2cc(Cl)c(C(F)(F)C(F)(F)F)n2)nn1-c1ncccc1Cl (centres unmarked) [I-1-197] | 4.50
CSC[C@H](C)NC(=O)c1cc(Cl)cc(C)c1NC(=O)c1cc(Cn2nnc(-c3cc(Cl)nc(Cl)c3)n2)nn1-c1ncccc1Cl [I-1-157] | 4.36
Cc1cc(I)cc(C(=O)NCC#N)c1NC(=O)c1cc(Cn2cc(Cl)c(C(F)(F)C(F)(F)F)n2)nn1-c1ncccc1Cl [I-1-246] | 3.85
Cc1cc(Cl)cc(C(=O)NC(C)C[S+](C)[O-])c1NC(=O)c1cc(Cn2cc(Cl)c(C(F)(F)C(F)(F)F)n2)nn1-c1ncccc1Cl (centres unmarked) [I-1-212] | 3.25
Cc1cc(I)cc(C(=O)NC(C)C)c1NC(=O)c1cc(Cn2cc(Cl)c(C(F)(F)C(F)(F)F)n2)nn1-c1ncccc1Cl [I-1-242] | 4.40
CNC(=O)c1cc(Cl)cc(C)c1NC(=O)c1cc(Cn2nnc(-c3cc(Cl)nc(Cl)c3)n2)nn1-c1ncccc1Cl [I-1-155] | 3.69
CNC(=O)c1cc(Cl)cc(Cl)c1NC(=O)c1cc(Cn2nc(C(F)(F)F)cc2C(F)(F)F)nn1-c1ncccc1Cl [I-1-304] | 3.01
CSC[C@H](C)NC(=O)c1cc(Cl)cc(C)c1NC(=O)c1cc(Cn2cnc(C(C)(C)C)n2)nn1-c1ncccc1Cl [I-1-162] | 3.10
Cc1cc(C#N)cc(C(=O)NCC#N)c1NC(=O)c1cc(Cn2cc(C(F)(F)C(F)(F)F)c(C(F)(F)C(F)(F)F)n2)nn1-c1ncccc1Cl [I-1-193] | 4.04
CSc1ncn(Cc2cc(C(=O)Nc3c(C)cc(Cl)cc3C(=O)NC3CC3)n(-c3ncccc3Cl)n2)n1 [I-1-263] | 2.13
CC(C)NC(=O)c1cc(Cl)cc(Cl)c1NC(=O)c1cc(Cc2cccnc2)nn1-c1ncccc1Cl [I-1-317] | 1.31
Cc1cc(I)cc(C(=O)NCC2CC2)c1NC(=O)c1cc(Cn2nc(C(F)(F)F)cc2C(F)(F)F)nn1-c1ncccc1Cl [I-1-235] | 4.34
Cc1cc(Cl)cc(C(=O)NCC#N)c1NC(=O)c1cc(Cn2cnc(C(F)(F)C(F)(F)F)n2)nn1-c1ncccc1Cl [I-1-348] | 2.21

Compound | logP
NC(=O)c1cc(Cl)cc(Cl)c1NC(=O)c1cc(Cn2cnc(C(F)(F)C(F)(F)F)n2)nn1-c1ncccc1Cl [I-1-336] | 2.32
CC(C)NC(=O)c1cc(Cl)cc(Cl)c1NC(=O)c1cc(Cc2ccoc2)nn1-c1ncccc1Cl [I-1-301] | 2.60
Cc1cc(Cl)cc(C(=O)NC2CC2)c1NC(=O)c1cc(Cn2nc(C(F)F)c([N+](=O)[O-])c2C(F)F)nn1-c1ncccc1Cl [I-1-260] | 3.12
Cc1cc(I)cc(C(=O)NC(C2CC2)C2CC2)c1NC(=O)c1cc(Cn2nc(C(F)(F)F)nc2C(F)(F)F)nn1-c1ncccc1Cl [I-1-286] | 4.52
CNC(=O)c1cc(Cl)cc(Cl)c1NC(=O)c1cc(Cn2cnc(C(F)(F)C(F)(F)F)n2)nn1-c1ncccc1Cl [I-1-326] | 2.55
CNC(=O)c1cc(Cl)cc(C)c1NC(=O)c1cc(Cn2cnc(C(F)(F)C(F)(F)F)n2)nn1-c1ncccc1Cl [I-1-329] | 2.57
CNC(=O)c1cc(Cl)cc(Cl)c1NC(=O)c1cc(Cn2nc(C(F)(F)F)nc2C(F)(F)F)nn1-c1ncccc1Cl [I-1-290] | 3.40
CSCC(C)NC(=O)c1cc(Cl)cc(C)c1NC(=O)c1cc(Cn2cc(Cl)c(C(F)(F)C(F)(F)F)n2)nn1-c1ncccc1Cl (centres unmarked) [I-1-206] | 4.41
Cc1cc(I)cc(C(=O)NC(C)C)c1NC(=O)c1cc(Cn2nc(C(F)F)c([N+](=O)[O-])c2C(F)F)nn1-c1ncccc1Cl [I-1-267] | 3.67
Cc1cc(C#N)cc(C(N)=O)c1NC(=O)c1cc(Cn2cnc(C(F)(F)C(F)(F)F)n2)nn1-c1ncccc1Cl [I-1-339] | 2.11
Cc1cc(C#N)cc(C(=O)NC2CC2)c1NC(=O)c1cc(Cn2nc(C(F)(F)F)cc2C(F)(F)F)nn1-c1ncccc1Cl [I-1-188] | 3.56
Cc1cc(C#N)cc(C(=O)NCC#N)c1NC(=O)c1cc(Cn2nc(C(F)(F)F)nc2C(F)(F)F)nn1-c1ncccc1Cl [I-1-180] | 3.11
NC(=O)c1cc(Cl)cc(Cl)c1NC(=O)c1cc(Cn2cnc(C(F)(F)C(F)(F)F)n2)nn1-c1ncccc1Cl [I-1-346] | 2.01
Cc1cc(I)cc(C(=O)NC(C2CC2)C2CC2)c1NC(=O)c1cc(Cn2cc(Cl)c(C(F)(F)C(F)(F)F)n2)nn1-c1ncccc1Cl [I-1-288] | 4.79
Cc1cc(F)cc(C(=O)NC(C)C)c1NC(=O)c1cc(Cn2cc(C(F)(F)C(F)(F)F)c(C(F)(F)C(F)(F)F)n2)nn1-c1ncccc1Cl [I-1-217] | 4.47
CCNC(=O)c1cc(I)cc(C)c1NC(=O)c1cc(Cn2cc(C(F)(F)C(F)(F)F)c(C(F)(F)C(F)(F)F)n2)nn1-c1ncccc1Cl [I-1-274] | 4.74
CSC[C@H](C)NC(=O)c1cc(Cl)cc(C)c1NC(=O)c1cc(Cn2nnc(-c3ccc(Br)cc3)n2)nn1-c1ncccc1Cl [I-1-152] | 4.41
Cc1cc(Cl)cc(C(=O)NC2C3CCCCC32)c1NC(=O)c1cc(Cn2cc(Cl)c(C(F)(F)C(F)(F)F)n2)nn1-c1ncccc1Cl (centres unmarked) [I-1-205] | 4.88
Cc1cc(Cl)cc(C(=O)NC(C)C)c1NC(=O)c1cc(Cn2nnc(-c3ccc(Br)cc3)n2)nn1-c1ncccc1Cl [I-1-151] | 4.20
CNC(=O)c1cc(I)cc(C)c1NC(=O)c1cc(Cn2cc(C(F)(F)C(F)(F)F)c(C(F)(F)C(F)(F)F)n2)nn1-c1ncccc1Cl [I-1-239] | 4.51

same assay, conditions: HPLC on reverse-phase column

Compound | logP
CNC(=O)c1cc(Cl)cc(C)c1NC(=O)c1cc(Cn2nnc(-c3ccc(C(F)(F)F)cc3)n2)nn1-c1ncccc1Cl [I-1-104] | 3.79
Cc1cc(Cl)cc(C(=O)N[C@@H](C)C[S+](C)[O-])c1NC(=O)c1cc(Cn2nc(C(F)(F)F)nc2C(F)(F)F)nn1-c1ncccc1Cl (some centres unmarked) [I-1-147] | 2.95
CNC(=O)c1cc(Cl)cc(C)c1NC(=O)c1cc(Cn2nnn(-c3ccc(C(F)(F)F)cc3)c2=O)nn1-c1ncccc1Cl [I-1-88] | 3.61
Cc1cc(Cl)cc(C(=O)NC(C)C)c1NC(=O)c1cc(Cn2cc(Br)c(C(F)(F)F)n2)nn1-c1ncccc1Cl [I-1-67] | 3.78
Cc1cc(Br)cc(C(=O)NC(C)C)c1NC(=O)c1cc(Cn2cc(Br)c(C(F)(F)F)n2)nn1-c1ncccc1Cl [I-1-69] | 3.92
CSC[C@H](C)NC(=O)c1cc(Cl)cc(C)c1NC(=O)c1cc(Cn2cc(Br)c(C(F)(F)F)n2)nn1-c1ncccc1Cl [I-1-130] | 4.11
Cc1cc(Cl)cc(C(=O)N[C@@H](C)CS(C)(=O)=O)c1NC(=O)c1cc(Cn2nc(C(F)(F)F)nc2C(F)(F)F)nn1-c1ncccc1Cl [I-1-129] | 3.27
Cc1cc(Br)cc(C(=O)NC(C)CS(C)(=O)=O)c1NC(=O)c1cc(Cn2cc(Br)c(C(F)(F)F)n2)nn1-c1ncccc1Cl (centres unmarked) [I-1-101] | 3.32
Cc1cc(Br)cc(C(=O)NC2CC2)c1NC(=O)c1cc(Cn2cc(C(F)(F)C(F)(F)F)c(C(F)(F)C(F)(F)F)n2)nn1-c1ncccc1Cl [I-1-52] | 4.59
CNC(=O)c1cc(Cl)cc(C)c1NC(=O)c1cc(Cn2nnn(-c3ccc(C(F)(F)F)c(Cl)c3)c2=O)nn1-c1ncccc1Cl [I-1-108] | 3.90
Cc1cc(Br)cc(C(=O)NC(C)C[S+](C)[O-])c1NC(=O)c1cc(Cn2cc(Br)c(C(F)(F)F)n2)nn1-c1ncccc1Cl (centres unmarked) [I-1-113] | 2.97
CNC(=O)c1cc(Cl)cc(C)c1NC(=O)c1cc(Cn2ccc(Br)n2)nn1-c1ncccc1Cl [I-1-125] | 2.56
CNC(=O)c1cc(Cl)cc(C)c1NC(=O)c1cc(Cn2ccc(C(F)(F)F)n2)nn1-c1ncccc1Cl [I-1-44] | 2.92
CNC(=O)c1cc(Cl)cc(C)c1NC(=O)c1cc(Cn2nnn(-c3cc(C(F)(F)F)cc(C(F)(F)F)c3)c2=O)nn1-c1ncccc1Cl [I-1-90] | 4.08

same assay, conditions: HPLC, reverse-phase column (C 18), 43° C., acidic range pH 2.7

logP | Compound
4.04 | Cc1cc(Cl)cc(C(=O)NC(C)C2CC2)c1NC(=O)c1cc(Cn2nc(C(F)(F)F)cc2C(F)(F)F)nn1-c1ncc(C(F)(F)F)cc1Cl (centres unmarked) [I-2-15]
2.83 | CNC(=O)c1cc(Cl)cc(Cl)c1NC(=O)c1cc(Cn2nc(C(F)(F)F)nc2C(F)(F)F)nn1C1CCCO1 (centres unmarked) [I-2-5]
4.47 | Cc1cc(F)cc(C(=O)NC(C)C)c1NC(=O)c1cc(Cn2nc(C(F)(F)F)cc2C(F)(F)F)nn1-c1ncc(C(F)(F)F)cc1Cl [I-2-20]

same assay, conditions: reverse-phase C18 HPLC column; HPLC, reverse-phase column (C 18), 43° C., acidic range pH 2.7; read-out: logP

chromatographic logP | Compound
2.86 | O=C(O)c1cc(Cn2nc(C(F)(F)F)cc2C(F)(F)F)nn1-c1ncccc1Cl [Example 3, 5-(3,5-Bistrifluoromethylpyrazol-1-ylmethyl)-2-(3-chloropyridin-2-yl)-2H-pyrazole-3-carboxylic acid]
